The experiment deals with GTPase KRas (Homo sapiens, UniProt P01116). Description: KRAS Biochemical Assay. On the procedure:
KRAS Biochemical Assay—BODIPY-GDP Exchange TR-FRET. Biochemical compound potencies were assessed by evaluating inhibition of SOS1-mediated nucleotide exchange in KRAS G12D. The SOS1-promoted exchange of fluorescently-labeled GDP (BODIPY-GDP) was monitored by time-resolved fluorescence resonance energy transfer (TR-FRET). Compounds solubilized in DMSO were dispensed as concentration series into 384-well white assay plates. […] The reaction was initiated with the addition of 5 μL of 3 nM recombinant human SOS1 and 300 nM BODIPY-GDP in assay buffer. […] The TR-FRET ratio was determined as the fluorescence at 520 nm divided by the fluorescence at 490 nm multiplied by 10,000. […] The normalized TR-FRET results were plotted against compound concentration, and the data fit to a 4-parameter Hill equation to determine the IC50 values.

Consider 1 molecule from BindingDB's records for patent US20240383915 (Genentech, 2024).

As usually defined, the IC50 is the midpoint of a concentration-inhibition curve. A low value points to higher potency.

Sequence of GTPase KRas (P01116 whole entry): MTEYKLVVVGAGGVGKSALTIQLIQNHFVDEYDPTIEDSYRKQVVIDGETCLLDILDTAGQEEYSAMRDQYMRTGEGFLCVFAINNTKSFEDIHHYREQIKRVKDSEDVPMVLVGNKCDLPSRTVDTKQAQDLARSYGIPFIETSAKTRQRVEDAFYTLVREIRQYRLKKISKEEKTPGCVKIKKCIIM

Molecule `Cc1cc(N)nc(-c2c(Cl)c3c4c(nc(OCC56CC(CO5)C6)nc4c2F)N([C@H](C)c2cccnc2N)CCO3)c1C(F)(F)F` [US20240383915, Example 143] had an IC50 of 0.87 nM.
